Measurements reported in ChEMBL document CHEMBL4417631, “Oral peptide inhibitors of interleukin-23 receptor and their use to treat inflammatory bowel diseases” (2017).
Where a SMILES comes first, the peptide text is derived from it.

Molecular target: T1, Interleukin-23 receptor (Homo sapiens, UniProt Q5VWK5)
T1 sequence (Q5VWK5 whole entry): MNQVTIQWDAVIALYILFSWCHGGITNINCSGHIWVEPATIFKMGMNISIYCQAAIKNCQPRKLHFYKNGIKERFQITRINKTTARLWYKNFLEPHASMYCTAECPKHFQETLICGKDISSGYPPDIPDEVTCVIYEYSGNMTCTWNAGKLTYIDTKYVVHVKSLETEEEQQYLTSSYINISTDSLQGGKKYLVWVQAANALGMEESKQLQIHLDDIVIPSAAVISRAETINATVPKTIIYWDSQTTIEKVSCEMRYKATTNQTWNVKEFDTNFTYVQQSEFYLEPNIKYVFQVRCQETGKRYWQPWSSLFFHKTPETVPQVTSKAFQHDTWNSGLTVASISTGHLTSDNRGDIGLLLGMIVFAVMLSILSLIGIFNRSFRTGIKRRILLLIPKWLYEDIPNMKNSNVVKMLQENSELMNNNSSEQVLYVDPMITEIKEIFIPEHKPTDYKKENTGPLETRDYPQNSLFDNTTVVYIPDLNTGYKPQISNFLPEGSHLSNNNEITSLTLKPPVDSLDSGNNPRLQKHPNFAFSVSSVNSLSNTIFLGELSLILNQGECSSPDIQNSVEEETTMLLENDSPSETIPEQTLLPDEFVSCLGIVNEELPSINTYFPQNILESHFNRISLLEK
Assay: Inhibition of interleukin-23 binding to human interleukin-23 receptor incubated for 2 hrs by competitive binding ELISA

Compound | IC50 [nM]
CC(=O)N[C@H]1CCSC[C@@H](C(=O)N[C@@H](Cc2ccc(OCCN)cc2)C(=O)N[C@@H](Cc2ccc3ccccc3c2)C(=O)N[C@@](C)(CCCCN)C(=O)N[C@@H](CCC(=O)O)C(=O)N[C@@H](CC(N)=O)C(=O)NCC(N)=O)NC(=O)[C@H](CCC(N)=O)NC(=O)[C@H](CCCNCc2ccccc2)NC(=O)[C@H]([C@@H](C)O)NC(=O)[C@H](CCC(N)=O)NC1=O | > 3000
CC(=O)N[C@@H](CS)C(=O)N[C@@H](C)C(=O)N[C@@H](CC(=O)O)C(=O)N[C@@H](Cc1c[nH]c2ccccc12)C(=O)N[C@H](C(=O)N[C@@H](CS)C(=O)N[C@@H](Cc1ccc(O)cc1)C(=O)N[C@@H](Cc1c[nH]c2ccccc12)C(=O)N[C@@H](Cc1cnc[nH]1)C(=O)N[C@@H](CC(N)=O)C(=O)N[C@@H](Cc1cnc[nH]1)C(=O)N[C@@H](CO)C(=O)N[C@@H](CCC(=O)O)C(=O)NCC(=O)N[C@@H](CO)C(=O)NCC(N)=O)C(C)C (Ac-CADWVCYWHNHSEGSG-NH2) | 500 to 1000
CC(C)[C@H](NC(=O)[C@H](Cc1c[nH]c2ccccc12)NC(=O)[C@H](CC(=O)O)NC(=O)[C@H](C)NC(=O)[C@@H](N)CS)C(=O)N[C@@H](CS)C(=O)N[C@@H](Cc1ccc(O)cc1)C(=O)N[C@@H](Cc1c[nH]c2ccccc12)C(N)=O | > 1000
CC(=O)N[C@@H](CS)C(=O)N[C@@H](CCC(N)=O)C(=O)N[C@H](C(=O)N[C@@H](Cc1c[nH]c2ccccc12)C(=O)N[C@@H](CCC(N)=O)C(=O)N[C@@H](CS)C(=O)N[C@@H](Cc1ccc(O)cc1)C(=O)N[C@H](CC(=O)N[C@@H](CCCNC(=N)N)C(=O)N[C@H](C(=O)N[C@@H](CC(N)=O)C(=O)NCC(=O)NCCOCC(=O)N[C@H](CCCCN)C(N)=O)C(C)C)Cc1cccc2ccccc12)[C@@H](C)O | > 30000
CC(=O)N[C@@H](CS)C(=O)N[C@@H](C)C(=O)N[C@@H](CC(=O)O)C(=O)N[C@@H](Cc1c[nH]c2ccccc12)C(=O)N[C@H](C(=O)N[C@@H](CS)C(=O)N[C@@H](Cc1ccc(O)cc1)C(=O)N[C@@H](Cc1c[nH]c2ccccc12)C(=O)N[C@@H](Cc1cnc[nH]1)C(=O)N[C@H](C(=O)N[C@@H](Cc1ccccc1)C(=O)NCC(=O)N1CC[C@H]1C(=O)N[C@H](CCCCN)C(=O)O)[C@@H](C)O)C(C)C | < 500
CC(=O)N[C@@H](CS)C(=O)N[C@@H](CCCCN)C(=O)N[C@H](C(=O)N[C@@H](Cc1c[nH]c2ccccc12)C(=O)N[C@@H](CCC(N)=O)C(=O)N[C@@H](CS)C(=O)N[C@@H](Cc1ccc(O)cc1)C(=O)N[C@@H](Cc1c[nH]c2ccccc12)C(=O)N[C@@H](CCCNC(=N)N)C(=O)N[C@H](C(=O)N[C@@H](Cc1ccccc1)C(=O)NCC(=O)NCCOCC(=O)N[C@H](CCCCN)C(N)=O)C(C)C)[C@@H](C)O | 40
CC(=O)N[C@@H](CS)C(=O)N[C@@H](CCCNC(=N)N)C(=O)N[C@H](C(=O)N[C@@H](Cc1c[nH]c2ccccc12)C(=O)N[C@@H](CCC(N)=O)C(=O)N[C@@H](CS)C(=O)N[C@@H](Cc1ccc(O)cc1)C(=O)N[C@@H](Cc1c[nH]c2ccccc12)C(=O)N[C@@H](Cc1cnc[nH]1)C(=O)N[C@@H](CCC(=O)O)C(=O)N[C@@H](Cc1ccc(O)cc1)C(=O)NCC(N)=O)[C@@H](C)O (Ac-CRTWQCYWHEYG-NH2) | < 500
CC(=O)N[C@@H](CS)C(=O)N[C@@H](C)C(=O)N[C@@H](CC(=O)O)C(=O)N[C@@H](Cc1c[nH]c2ccccc12)C(=O)N[C@H](C(=O)N[C@@H](CS)C(=O)N[C@@H](Cc1ccc(O)cc1)C(=O)N[C@@H](Cc1cccc2ccccc12)C(=O)N[C@H](C)C(=O)N[C@H](C(=O)N[C@@H](Cc1ccccc1)C(=O)NCC(N)=O)[C@@H](C)O)C(C)C | > 1000
CC(=O)N[C@@H](CS)C(=O)N[C@@H](C)C(=O)N[C@@H](CC(=O)O)C(=O)N[C@@H](Cc1c[nH]c2ccccc12)C(=O)N[C@H](C(=O)N[C@@H](CS)C(=O)N[C@@H](Cc1ccc(O)cc1)C(=O)N[C@@H](Cc1c[nH]c2ccccc12)C(=O)N[C@@H](Cc1cnc[nH]1)C(=O)N[C@H](C(=O)N[C@@H](Cc1ccccc1)C(=O)NCC(=O)N[C@@H](C)C(=O)N[C@H](CCCCN)C(=O)O)[C@@H](C)O)C(C)C | < 500
CC(=O)N[C@H](C(=O)N[C@@H](CCC(N)=O)C(=O)N[C@H](C(=O)N[C@@H](Cc1c[nH]c2ccccc12)C(=O)N[C@@H](CCC(N)=O)C(=O)N[C@H](C(=O)N[C@@H](Cc1cc(F)cc(F)c1)C(=O)N[C@@H](Cc1ccc2ccccc2c1)C(=O)N[C@@](C)(CCCN)C(=O)N[C@@H](CCC(N)=O)C(=O)N[C@@H](CC(N)=O)C(=O)NCC(N)=O)C(C)(C)S)[C@@H](C)O)C(C)(C)S | 100 to 1000
CCC(CC)(NC(=O)[C@H](CCCN)NC(=O)[C@H](Cc1c[nH]c2ccccc12)NC(=O)[C@H](Cc1ccc(O)cc1)NC(=O)[C@H](CS)NC(=O)[C@@H](NC(=O)[C@H](Cc1c[nH]c2ccccc12)NC(=O)[C@H](CC(=O)O)NC(=O)[C@H](C)NC(=O)[C@H](CS)NC(C)=O)C(C)C)C(=O)N[C@@H](Cc1ccccc1)C(=O)NCC(=O)NCCOCC(=O)N[C@H](CCCCN)C(N)=O | 6000
CC(=O)N[C@@H](CS)C(=O)N[C@H](C(=O)N[C@H](C(=O)N[C@@H](Cc1c[nH]c2ccccc12)C(=O)N[C@@H](CCC(=O)O)C(=O)N[C@@H](CS)C(=O)N[C@@H](Cc1ccc(O)cc1)C(=O)N[C@@H](Cc1c[nH]c2ccccc12)C(=O)N[C@@H](Cc1cnc[nH]1)C(=O)N[C@@H](CCC(=O)O)C(=O)N[C@@H](Cc1ccccc1)C(=O)NCC(N)=O)[C@@H](C)O)[C@@H](C)O (Ac-CTTWECYWHEFG-NH2) | < 500
CC(=O)N[C@@H](CS)C(=O)N[C@@H](CCC(N)=O)C(=O)N[C@H](C(=O)N[C@@H](Cc1c[nH]c2ccccc12)C(=O)N[C@@H](CCC(N)=O)C(=O)N[C@@H](CS)C(=O)N[C@@H](Cc1ccc(O)cc1)C(=O)N[C@@](C)(Cc1c[nH]c2ccccc12)C(=O)N[C@@H](CCC(C)C)C(=O)N[C@@H](CCC(=O)O)C(=O)N[C@@H](CCC(N)=O)C(=O)NCC(N)=O)[C@@H](C)O | > 30000
CC(=O)N[C@@H](CS)C(=O)N[C@@H](CCC(N)=O)C(=O)N[C@H](C(=O)N[C@@H](Cc1c[nH]c2ccccc12)C(=O)N[C@@H](CCC(N)=O)C(=O)N[C@@H](CS)C(=O)N[C@@H](Cc1ccc(O)cc1)C(=O)N[C@@H](Cc1c[nH]c2ccccc12)C(=O)N[C@H](CC(C)C)C(=O)N[C@@H](CCC(=O)O)C(=O)N[C@@H](CC(N)=O)C(=O)NCC(N)=O)[C@@H](C)O | 319
CC(=O)N[C@@H](CS)C(=O)N[C@@H](C)C(=O)N[C@@H](CC(=O)O)C(=O)N[C@@H](Cc1c[nH]c2ccccc12)C(=O)N[C@H](C(=O)N[C@@H](CS)C(=O)N[C@@H](Cc1ccc(O)cc1)C(=O)N[C@@H](Cc1cccc2ccccc12)C(=O)N[C@@H](Cc1ccccc1)C(=O)N[C@H](C(=O)N[C@@H](Cc1ccccc1)C(=O)NCC(N)=O)[C@@H](C)O)C(C)C | > 1000
N=C(N)NCCC[C@H](NC(=O)[C@H](Cc1c[nH]c2ccccc12)NC(=O)[C@H](Cc1ccc(O)cc1)NC(=O)[C@@H]1CCSCc2ccc(cc2)C(=O)N[C@@H](CCC(N)=O)C(=O)N[C@@H](CC(=O)O)C(=O)N[C@@H](Cc2c[nH]c3ccccc23)C(=O)N[C@@H](CCC(N)=O)C(=O)N1)C(=O)N[C@@H](CCC(=O)O)C(=O)N[C@@H](CC(N)=O)C(=O)NCC(=O)NCCOCC(=O)N[C@H](CCCCN)C(N)=O | > 30000
CC(C)[C@H](NC(=O)[C@H](Cc1c[nH]c2ccccc12)N(C)C(=O)[C@H](CC(=O)O)NC(=O)[C@H](C)NC(=O)[C@@H](N)CS)C(=O)N[C@@H](CS)C(=O)N[C@@H](Cc1ccc(O)cc1)C(=O)N[C@@H](Cc1cccc2ccccc12)C(=O)N[C@@H](Cc1cnc[nH]1)C(=O)N[C@H](C(=O)N[C@@H](Cc1ccccc1)C(=O)O)[C@@H](C)O | > 1000
CC(=O)N[C@@H](CS)C(=O)N[C@@H](CCC(N)=O)C(=O)N[C@H](C(=O)N[C@@H](Cc1c[nH]c2ccccc12)C(=O)N[C@@H](CCC(N)=O)C(=O)N[C@@H](CS)C(=O)N[C@@H](Cc1ccc(O)cc1)C(=O)N[C@@H](Cc1c[nH]c2ccccc12)C(=O)N[C@@H](CCCNC(=N)N)C(=O)N[C@@H](CCCCN)C(=O)N[C@@H](CC(N)=O)C(=O)NCC(=O)NCCOCC(=O)N[C@H](CCCCN)C(N)=O)[C@@H](C)O | < 500
CC(=O)N[C@@H](CS)C(=O)N[C@@H](CCC(N)=O)C(=O)N[C@H](C(=O)N[C@@H](Cc1c[nH]c2ccccc12)C(=O)N[C@@H](CCC(N)=O)C(=O)N[C@@H](CS)C(=O)N[C@@H](Cc1ccc(O)cc1)C(=O)N[C@@H](Cc1c[nH]c2ccccc12)C(=O)N[C@@H](CCCNC(=N)N)C(=O)N[C@H](CCC(=O)O)C(=O)N[C@@H](CC(N)=O)C(=O)NCC(=O)NCCOCC(=O)N[C@H](CCCCN)C(N)=O)[C@@H](C)O | > 1000
CC(=O)N[C@@H](CS)C(=O)N[C@@H](C)C(=O)N[C@@H](CC(=O)O)C(=O)N[C@@H](Cc1c[nH]c2ccccc12)C(=O)N[C@H](C(=O)N[C@H](C(=O)N[C@@H](Cc1ccc(O)cc1)C(=O)N[C@@H](Cc1c[nH]c2ccccc12)C(=O)N[C@@H](Cc1cnc[nH]1)C(=O)N[C@H](C(=O)N[C@@H](Cc1ccccc1)C(=O)NCC(N)=O)[C@@H](C)O)C(C)(C)S)C(C)C | 1000 to 10000
CC(=O)N[C@@H](CS)C(=O)N[C@@H](CCC(N)=O)C(=O)N[C@H](C(=O)N[C@@H](Cc1c[nH]c2ccccc12)C(=O)N[C@@H](CCC(N)=O)C(=O)N[C@@H](CS)C(=O)N[C@@H](Cc1ccc(O)cc1)C(=O)N[C@@H](Cc1c[nH]c2ccccc12)C(=O)N[C@@H](CCCNC(=N)N)C(=O)N[C@@H](CCC(=O)O)C(=O)N[C@@H](CC(N)=O)C(=O)NCC(=O)NCCOCC(=O)N[C@H](CCCCN)C(N)=O)[C@@H](C)O | < 500
